Measurements: patent US10434193B2, “Composition for use in medical imaging and a method for preparing thereof” (Jacobson Research Laboratory Limited, priority 2017, dated 2019)

Test: Determination of relaxivities r1 and r2 of contrast agents under MRI
Format: physicochemical
Source text: During an MRI study, an MRI contrast agent generally shortens the value of a characteristic time constant known as the relaxation time of the nearby water protons at the tissues being examined to thereby enhance contrast of the image. The relaxivity of a contrast agent reflects how the relaxation rates of a solution change as a function of concentration [C]. Since a contrast agent may individually affect two relaxation rates (1/ΔT1 and 1/ΔT2), the degree of contrast as provided by a contrast agent is generally characterized under two corresponding relaxivities, i.e. r1 and r2 (L/mmol-s), which are defined by: 1/ΔT1=r1·[C] and 1/ΔT2=r2·[C]
The relaxation rates of a contrast agent in solution are obtained by graphing changes in relaxation rates (1/ΔT1) and (1/ΔT2) at different concentrations, with r1 and r2 being determined by the slopes of the graph.
For each of the contrast agents being tested, samples have been prepared in 10 different concentrations, namely, 1000 μg/ml, 750 μg/ml, 500 μg/ml, 250 μg/ml, 125 μg/ml, 62.50 μg/ml, 31.25 μg/ml, 15.63 μg/ml, 7.81 μg/ml and 3.91 μg/ml using DMF:H2O 4:1 as solvent for dilution of the respective stock samples.

[1] = 10 concentrations 3.91-1000 μg/ml in DMF:H2O 4:1

| Structure (SMILES) | r1 [1] [mL/µg/s] | r1 (molecular weight adjusted) [L/mmol/s] |
| --- | --- | --- |
| O=[N+]([O-])[O-].O=[N+]([O-])[O-].O=[N+]([O-])[O-].[Fe+3] [Fe(NO3)3, iron nitrate] | 0.0004 | 0.0968 |
| [Cl][Gd]([Cl])[Cl] [GdCl3] | 0.0494 | 13.0416 |
